Data: patent US12427114B2, “Orodispersible dosage unit containing an estetrol component” (ESTETRA SRL, priority 2015, dated 2025)

Assays:
[1] = Randomized, open-label, two-period, cross-over pharmacokinetic study, sublingual versus oral 10 mg estetrol tablet; assay type: in vivo, human; settings: 10 mg estetrol sublingual vs oral; healthy female volunteers
Experimental: A randomized, open-label, two-period, cross-over, pharmacokinetic study is conducted to compare sublingual bioavailability of 10 mg estetrol administered in one 80 mg tablet (having the same composition as the tablets described in Example 4, Formulation E) with oral availability of estetrol contained in a 83 mg tablet containing 10 mg estetrol. These tablets are administered sublingually and orally to healthy female volunteers under fasting conditions.
Ten healthy female subjects are selected on the basis of the following criteria: age of 45-65 years (inclusive), nonsmokers or past smokers (at least 6 months before dosing), body-mass index (BMI)=18.5 to 30 kg/m^2 (inclusive at the time of the screening).
At the start of the first and the second period of the study, between 07:00 am and 07:28 am, 5 subjects receive a single dose of the sublingual formulation of estetrol by administering one estetrol tablet (tablet weight 80 mg; 10 mg estetrol) and 5 subjects receive a single oral dose of the oral estetrol formulation by administering one estetrol tablet (tablet weight 83 mg; 10 mg estetrol), ingested together with 200 ml water. […]
The estetrol concentration in the collected blood samples is determined by means of HPLC/MS/MS. The concentrations of glucuronided estetrol (D-ring) in the urine samples is also determined with the help of HPLC/MS/MS.

[2] = humans; cited from earlier work
estrogen receptors = settings: in vitro; cited from earlier work
[3] = target: T1, sex hormone binding globulin (SHBG) (Homo sapiens, UniProt P04278); settings: cited from earlier work
T1 sequence (P04278 30-402): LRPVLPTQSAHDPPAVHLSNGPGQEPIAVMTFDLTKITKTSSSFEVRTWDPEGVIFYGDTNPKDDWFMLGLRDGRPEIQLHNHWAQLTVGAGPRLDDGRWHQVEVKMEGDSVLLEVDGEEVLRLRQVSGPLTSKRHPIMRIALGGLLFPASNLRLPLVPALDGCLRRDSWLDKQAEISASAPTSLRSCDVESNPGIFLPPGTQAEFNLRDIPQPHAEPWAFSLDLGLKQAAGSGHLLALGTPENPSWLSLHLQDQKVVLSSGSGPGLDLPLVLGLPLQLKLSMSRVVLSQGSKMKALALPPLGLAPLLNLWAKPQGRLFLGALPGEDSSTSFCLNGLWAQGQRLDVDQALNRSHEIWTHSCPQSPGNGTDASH

production of SHBG = settings: in vitro; cited from earlier work
[4] = tested on: vagina, uterus, body weight, bone mass, bone strength, hot flushes, ovulation; settings: ovulation (inhibition), dose-dependent; cited from earlier work
DMBA mammary tumour = settings: extent and dose level similar to tamoxifen and to ovariectomy; cited from earlier work
[5] = tested on: human breast cancer cells; settings: in vitro; cited from earlier work

## C[C@]12CC[C@@H]3c4ccc(O)cc4CC[C@H]3[C@@H]1[C@@H](O)[C@@H](O)[C@@H]2O [estetrol, 1,3,5 (10)-estratrien-3,15α,16α, 17β-tetrol]
[1]
  Impact on a liver function parameter, sublingual compared with oral: less impact on a liver function parameter
[2]
  Oral bioavailability: high and dose-proportional
  Terminal elimination half-life: about 28 hours
Estrogen receptors
  Estrogen receptor binding selectivity: binds highly selective to the estrogen receptors with preference for the ERα form
[3]
  Binding to SHBG: does not bind
Production of SHBG
  Stimulation of the production of SHBG: does not stimulate
[4]
  Estrogenic effects in rat models: exhibited estrogenic effects
DMBA mammary tumour
  Tumour development: prevented tumour development
[5]
  Effect in the presence of 17β-estradiol: anti-estrogenic effect
